Data: PubChem BioAssay AID248 (DTP/NCI, 2004)
Several values for one entry are separate records, joined by “and”; a condition that tells them apart may be missing. Equal entries are not always repeated. Inconclusive results and toxic doses are left out. No stated cut-off is given here; in the data, active means T/C of 150% or more; inactive means T/C below 125%.

Tested on: L1210 leukemia ip in BDF1 mice, survival T/C
Test: NCI In Vivo Anticancer Drug Screen. Data for tumor model L1210 Leukemia (intraperitoneal) in B6D2F1 (BDF1) mice
Settings: endpoint: mean survival time, higher = longer survival
Procedure, shortened: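 Transplantable tumor model; survival measured in treated vs vehicle control mice. Value = treated/control.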

[1] = dose: 100.0 mg/kg/injection, schedule: Q04DX002 (ip), vehicle: Klucel (hydroxypropylcellulose) (HPC)
[2] = dose: 200.0 mg/kg/injection, schedule: Q04DX002 (ip), vehicle: Klucel (hydroxypropylcellulose) (HPC)
[3] = dose: 400.0 mg/kg/injection, schedule: Q04DX002 (ip), vehicle: Klucel (hydroxypropylcellulose) (HPC)
[4] = dose: 50.0 mg/kg/injection, schedule: Q01DX009 (ip), vehicle: Klucel (hydroxypropylcellulose) (HPC)
[5] = dose: 100.0 mg/kg/injection, schedule: Q01DX009 (ip), vehicle: Klucel (hydroxypropylcellulose) (HPC)
[6] = dose: 100.0 mg/kg/injection, schedule: Q04DX003 (ip), vehicle: Klucel (hydroxypropylcellulose) (HPC)
[7] = dose: 200.0 mg/kg/injection, schedule: Q01DX009 (ip), vehicle: Klucel (hydroxypropylcellulose) (HPC)
[8] = dose: 200.0 mg/kg/injection, schedule: Q04DX003 (ip), vehicle: Klucel (hydroxypropylcellulose) (HPC)
[9] = dose: 400.0 mg/kg/injection, schedule: Q01DX009 (ip), vehicle: Klucel (hydroxypropylcellulose) (HPC)
[10] = dose: 400.0 mg/kg/injection, schedule: Q04DX003 (ip), vehicle: Klucel (hydroxypropylcellulose) (HPC)
[11] = dose: 50.0 mg/kg/injection, schedule: Q04DX003 (ip), vehicle: Klucel (hydroxypropylcellulose) (HPC)
[12] = dose: 100.0 mg/kg/injection, schedule: Q01DX009 (ip), vehicle: saline
[13] = dose: 100.0 mg/kg/injection, schedule: Q04DX003 (ip), vehicle: saline
[14] = dose: 200.0 mg/kg/injection, schedule: Q04DX003 (ip), vehicle: saline
[15] = dose: 100.0 mg/kg/injection, schedule: Q01DX001 (ip), vehicle: carboxymethylcellulose (CMC)
[16] = dose: 200.0 mg/kg/injection, schedule: Q01DX001 (ip), vehicle: carboxymethylcellulose (CMC)
[17] = dose: 100.0 mg/kg/injection, schedule: Q01DX001 (ip), vehicle: saline
[18] = dose: 200.0 mg/kg/injection, schedule: Q01DX001 (ip), vehicle: saline
[19] = dose: 400.0 mg/kg/injection, schedule: Q01DX001 (ip), vehicle: saline
[20] = dose: 100.0 mg/kg/injection, schedule: Q01DX001 (ip), vehicle: Klucel (hydroxypropylcellulose) (HPC)
[21] = dose: 200.0 mg/kg/injection, schedule: Q01DX001 (ip), vehicle: Klucel (hydroxypropylcellulose) (HPC)
[22] = dose: 400.0 mg/kg/injection, schedule: Q01DX001 (ip), vehicle: Klucel (hydroxypropylcellulose) (HPC)
[23] = dose: 50.0 mg/kg/injection, schedule: Q01DX001 (ip), vehicle: saline

Measured: T/C

O=C(Cl)C12CC3CC(CC(C3)C1)C2
inactive: [1] 111 % of control | [2] 111 % of control | [3] 100 % of control

O=C(NC1CCCCC1)Oc1cc(CCl)cc(CCl)c1
inactive: [4] 112 % of control | [5] 112 % of control

CNC(=O)Nc1ccc(C)c(Cl)c1
inactive: [5] 100 % of control | [6] 102 % of control | [7] 90 % of control | [8] 102 % of control | [9] 106 % of control | [10] 104 % of control

CN(C)/N=C/C=C/c1ccccc1
inactive: dose: 25.0 mg/kg/injection, schedule: Q01DX009 (ip), vehicle: Klucel (hydroxypropylcellulose) (HPC) 98 % of control | [4] 102 % of control | [11] 100 % of control | [5] 88 % of control | [12] 105 % of control | [6] 99 % of control | [13] 98 % of control | dose: 200.0 mg/kg/injection, schedule: Q01DX009 (ip), vehicle: saline 100 % of control | [8] 97 % of control | [14] 97 % of control | dose: 400.0 mg/kg/injection, schedule: Q04DX003 (ip), vehicle: saline 102 % of control

NC1(C(=O)O)CCC(N)(C(=O)O)CC1 (stereo unspecified)
inactive: dose: 75.0 mg/kg/injection, schedule: Q01DX001 (ip), vehicle: saline 110 % of control | dose: 150.0 mg/kg/injection, schedule: Q01DX001 (ip), vehicle: saline 100 % of control

COc1cc(N=C(N)N=C(N)N)c2ncccc2c1
inactive: dose: 75.0 mg/kg/injection, schedule: Q01DX001 (ip), vehicle: carboxymethylcellulose (CMC) 97 % of control

CC(N)C(=O)NC(CC(N)=O)C(=O)O (stereo unspecified)
inactive: dose: 25.0 mg/kg/injection, schedule: Q04DX002 (ip), vehicle: saline 95 % of control | dose: 50.0 mg/kg/injection, schedule: Q01DX001 (ip), vehicle: carboxymethylcellulose (CMC) 97 % of control | dose: 50.0 mg/kg/injection, schedule: Q04DX002 (ip), vehicle: saline 100 % of control | [15] 97 % of control | dose: 100.0 mg/kg/injection, schedule: Q04DX002 (ip), vehicle: saline 106 % of control | [16] 97 % of control | dose: 400.0 mg/kg/injection, schedule: Q01DX001 (ip), vehicle: carboxymethylcellulose (CMC) 95 % of control

O=C(O)c1cc(S(=O)(=O)Cl)ccc1Cl
inactive: [11] 105 % of control | [15] 95 % of control | [6] 92 % of control | [16] 104 % of control

COC(=O)C1=C(NC(=O)Nc2ccccc2)OC(C)(C)C1c1ccc(Cl)cc1 (stereo unspecified)
inactive: [17] 93 % of control | [18] 89 % of control | [19] 89 % of control

CN=C(NC)c1cccc(NC(=O)c2cccc(C(=O)Nc3cccc(C(=NC)NC)c3)c2)c1
inactive: dose: 4.4 mg/kg/injection, schedule: Q01DX Z (ip), vehicle: carboxymethylcellulose (CMC) 96 % of control | dose: 6.6 mg/kg/injection, schedule: Q01DX Z (ip), vehicle: carboxymethylcellulose (CMC) 98 % of control | dose: 10.0 mg/kg/injection, schedule: Q01DX Z (ip), vehicle: carboxymethylcellulose (CMC) 96 % of control | dose: 15.0 mg/kg/injection, schedule: Q01DX Z (ip), vehicle: carboxymethylcellulose (CMC) 93 % of control and 98 % of control | dose: 22.0 mg/kg/injection, schedule: Q01DX Z (ip), vehicle: carboxymethylcellulose (CMC) 94 % of control

COc1ccc(NC(=S)N(CCC#N)C2CCCCC2)cc1
inactive: [1] 101 % of control | [2] 94 % of control | [3] 90 % of control

Nc1ccc(Cl)c(C(=O)O)c1
inactive: [5] 111 % of control | [7] 121 % of control | [9] 105 % of control

Nc1cc2ccncc2c2ccccc12
inactive: dose: 50.0 mg/kg/injection, schedule: Q01DX009 (ip), vehicle: saline sonified 98 % of control | dose: 100.0 mg/kg/injection, schedule: Q01DX009 (ip), vehicle: saline sonified 104 % of control | [6] 97 % of control | dose: 200.0 mg/kg/injection, schedule: Q01DX009 (ip), vehicle: saline sonified 106 % of control | [8] 108 % of control

Cn1c(=O)c2ccccc2c2ccccc21
inactive: [5] 99 % of control | [6] 100 % of control | [7] 97 % of control | [8] 100 % of control | [9] 100 % of control | [10] 105 % of control

O=CC(O)C(O)C(O)CO (stereo unspecified) (tested in a mixture with another compound)
inactive: [20] 94 % of control | [21] 88 % of control | [22] 88 % of control

COc1ccc(OC)c(C(O)C(C)NC(C)(C)C)c1 (stereo unspecified)
inactive: [23] 106 % of control | [17] 97 % of control

COC(=O)C1=C(N)OC(C)(C)C1c1ccc(Cl)cc1 (stereo unspecified)
inactive: [17] 100 % of control | [18] 94 % of control | [19] 97 % of control

O=C1OC(=O)C2C(c3ccccc3)C=C(Cl)C(CCCl)C12 (stereo unspecified)
inactive: [20] 101 % of control | [21] 97 % of control | [22] 95 % of control

C/C(=N/O)c1ccncc1
inactive: [6] 100 % of control | [8] 95 % of control | [10] 95 % of control

NCCCn1cnc2c(N)ncnc21
inactive: [12] 94 % of control | [13] 91 % of control | [14] 98 % of control

CCOC(=O)/C(C)=N\N=C(/CCOC)COC
inactive: [23] 101 % of control | dose: 50.0 mg/kg/injection, schedule: Q01DX009 (ip), vehicle: carboxymethylcellulose (CMC) 117 % of control | [17] 101 % of control | [18] 101 % of control | [19] 95 % of control | dose: 400.0 mg/kg/injection, schedule: Q01DX009 (ip), vehicle: carboxymethylcellulose (CMC) 94 % of control

Cc1cc(Cl)cc(Cl)c1OCC(=O)O
inactive: [1] 98 % of control | [2] 95 % of control | [3] 95 % of control

COc1ccc(/C=C/[N+](=O)[O-])cc1
inactive: dose: 6.25 mg/kg/injection, schedule: Q04DX002 (ip), vehicle: saline with Tween-80 97 % of control | dose: 12.5 mg/kg/injection, schedule: Q04DX002 (ip), vehicle: saline with Tween-80 93 % of control | dose: 25.0 mg/kg/injection, schedule: Q04DX002 (ip), vehicle: other 96 % of control | dose: 25.0 mg/kg/injection, schedule: Q04DX002 (ip), vehicle: saline with Tween-80 89 % of control | dose: 25.0 mg/kg/injection, schedule: Q04DX003 (ip), vehicle: Klucel (hydroxypropylcellulose) (HPC) 100 % of control | [11] 103 % of control | [6] 95 % of control

Cc1ccc(-n2c(=S)[nH]c3ccccc3c2=O)cc1C
inactive: [5] 90 % of control | [6] 96 % of control | [7] 90 % of control | [8] 93 % of control | [9] 92 % of control | [10] 93 % of control

Cc1c(O)c2ccccc2[nH]c1=O
inactive: dose: 100.0 mg/kg/injection, schedule: Q04DX002 (ip), vehicle: saline with Tween-80 97 % of control | dose: 200.0 mg/kg/injection, schedule: Q04DX002 (ip), vehicle: saline with Tween-80 103 % of control | dose: 400.0 mg/kg/injection, schedule: Q04DX002 (ip), vehicle: saline with Tween-80 106 % of control

Cc1c(C=O)[nH]c(=O)[nH]c1=O
inactive: [17] 90 % of control | [18] 102 % of control | [19] 96 % of control

CC(=O)c1ccccc1OC(F)(F)C(F)Cl (stereo unspecified)
inactive: [17] 101 % of control | [18] 103 % of control | [19] 103 % of control

CC1C2CC(C3(C)OCCO3)CCC2(C)CCC12OCCO2 (stereo unspecified)
inactive: [6] 101 % of control | [8] 106 % of control | [10] 106 % of control

CCCCCCCC(=O)Nc1c(C)cc(C)cc1C
inactive: dose: 100.0 mg/kg/injection, schedule: Q04DX003 (ip), vehicle: saline with Tween-80 95 % of control | dose: 200.0 mg/kg/injection, schedule: Q04DX003 (ip), vehicle: saline with Tween-80 92 % of control | dose: 400.0 mg/kg/injection, schedule: Q04DX003 (ip), vehicle: saline with Tween-80 93 % of control

S=c1nc[nH]c2ncccc12
inactive: [6] 104 % of control | [8] 100 % of control | [10] 97 % of control

COc1ccc2c(c1)CCC1C2=CC(=O)CC1c1ccco1 (stereo unspecified)
inactive: [6] 102 % of control | [8] 93 % of control | [10] 88 % of control
